From patent publication US10768179B2, “Method for predicting responsiveness to cancer treatment using p300-inhibiting compound” (National Cancer Center, priority 2014, dated 2020)

Tests used:
[1] = test system: CBP-mutated lung cancer cells and lymphoma cells; experiment: Sensitivity (survival rate, IC50) of cancer cell lines to p300 inhibitor C646; type: cell-based
Experimental: A549, H1299, H157, SQ5, H1703, LK2, H520 (NSCLC), RL, Loucy, RC-K8, U2932, Ramos, Farage, SUP-T1, WSU-NHL, VAL, SUDHL5, Jurkat, TE8, and TE10 were separately cultured in RPMI-1640 or DMEM supplemented with 10% fetal bovine serum (FBS). MRC-5 cells (normal fibroblasts), HEK293T cells (immortalized renal epithelial cells), and RPE-1 cells (immortalized retinal epithelial cells) were separately cultured in DMEM supplemented with 10% FBS.
The viability was determined by examining intracellular ATP level using CellTiter-Glo Luminescent Cell Viability Assay kit (Promega Corp.). Each cancer cell line was transfected with siRNA (50 nM) using Lipofectamine RNAiMAX (Invitrogen Corp.). Two days later, the cells were trypsinized, counted, and reseeded in specified numbers in 96-well plate. In order to measure the cell viability, CellTiter-Glo Luminescent Cell Viability Assay kit (Promega Corp.) was added to the cells, and […] was measured using Envision (PerkinElmer, Inc.).

[2] = test system: CBP-mutated cancer cells; experiment: Apoptosis analysis by Annexin V/PI staining after C646 treatment; type: cell-based; conditions: 48 hours and 96 hours after C646 treatment; FIG. 5B
Experimental: In order to detect apoptotic cells by flow cytometry, Annexin V-FITC/PI apoptosis detection kit (F. Hoffmann-La Roche, Ltd.) was used according to the manufacturer's instruction manual. Briefly, the cell pellet was suspended in a 1× binding buffer and incubated with Annexin V-FITC and PI for 20 minutes in the dark. Subsequently, the fluorescence of the cells was analyzed by flow cytometry.

Structure (SMILES): CC1=NN(c2ccc(C(=O)O)cc2)C(=O)/C1=C\c1ccc(-c2cc(C)c(C)cc2[N+](=O)[O-])o1 [C646]
- IC50 value for C646 ([1]; CBP-mutated vs CBP-proficient cancer cells, Student's t test, p<0.01, FIGS. 3B and 3D): low tendency relative to CBP-proficient cancer cells
- sensitivity to C646 (survival rates) ([1]; CBP-mutated vs CBP-proficient lung cancer and lymphoma cell lines, FIGS. 3A and 3C): higher sensitivity of the CBP-mutated cancer cells to C646 than that of the CBP-proficient cancer cells
- induction of apoptosis (Annexin V stainability) [2]: specifically suppresses the growth of CBP-mutated cancer cells by inducing apoptosis
